The RepoRT retention time repository (doi:10.1021/acs.analchem.2c02893)

Experiment: RP, Thermo Scientific Acclaim RSLC 120 C18, 100 × 2.1 mm, 2.2 µm, 30 °C, 0.2 mL/min, estimated dead time 1.1 min; A: 90% water + 10% methanol + 0.01% formic acid + 5 mM ammonium formate, pH 3.61; B: methanol + 0.01% formic acid + 5 mM ammonium formate, pH 3.61; gradient (min/%B) 0/1 1/1 2/39 13/99.9 15/99.9 15.1/1 20.1/1
Conditions: stereoisomer not certain
Molecule `CCCC(=O)OC1(C(=O)CCl)C(C)CC2C3CCC4=CC(=O)C=CC4(C)C3(F)C(=O)CC21C` (stereo not given) [Clobetasone butyrate] has an LC retention time of 11.3 min.
For `O=C(Nc1ccc(F)cc1F)c1cccnc1Oc1cccc(C(F)(F)F)c1` [Diflufenican], the LC retention time was 11.7 min.
Molecule `CNS(=O)(=O)Cc1ccc2[nH]cc(CCN(C)C)c2c1` [Sumatriptan] has an LC retention time of 3.43 min.
Work on `COc1ccc(C2Sc3ccccc3N(CCN(C)C)C(=O)C2O)cc1` (stereo not given) [Diltiazem-Deacetyl] yielded an LC retention time of 6.41 min.
With `CC1N=C(c2ccccc2Cl)c2cc([N+](=O)[O-])ccc2NC1=O` (stereo not given) [Meclonazepam] the LC retention time was 8.28 min.
`CN(CC=CC#CC(C)(C)C)Cc1cccc2ccccc12` [Terbinafine] gave an LC retention time of 11 min.
Molecule `O=C(CCCN1CCC(O)(c2cccc(C(F)(F)F)c2)CC1)c1ccc(F)cc1` [Trifluperidol] has an LC retention time of 7.42 min.
For `CN(CC1(C)CCCO1)S(=O)(=O)c1ccc(Cl)c(S(N)(=O)=O)c1` (stereo not given) [Mefruside], the LC retention time was 6.56 min.
With `Cc1c(C=O)c(=O)n(-c2ccccc2)n1C` [4-Formyl-antipyrine] the LC retention time was 3.98 min.
With `Cc1[nH]oc(=O)c1N=Nc1ccccc1Cl` [Drazoxolon] the LC retention time was 10.3 min.
In the case of `CC(=O)Oc1ccc(C(c2ccc(OC(C)=O)cc2)c2ccccn2)cc1` [Bisacodyl], the LC retention time is reported as 8.92 min.
For `CNC(=O)Oc1cc(C)cc(C(C)C)c1` [Promecarb], the LC retention time was 9.51 min.
Molecule `CCC(CC)OC1C=C(C(=O)O)CC(N)C1NC(C)=O` (stereo not given) [Oseltamivir-carboxylate] has an LC retention time of 4.73 min.
For `COP(=S)(OC)Oc1ccc(Sc2ccc(OP(=S)(OC)OC)cc2)cc1` [Temephos], the LC retention time was 12.4 min.
For `Clc1nc(Cl)nc(Nc2ccccc2Cl)n1` [Anilazine (Dyrene)], the LC retention time was 9.74 min.
`COc1ccc2c3c1OC1C(=O)CCC4(O)C(C2)NCCC314` (stereo not given) [Oxycodone-Nor] showed an LC retention time of 3.71 min.
For `CN(Cc1nc2c(N)nc(N)nc2[nH]c1=O)c1ccc(C(=O)NC(CCC(=O)O)C(=O)O)cc1` (stereo not given) [7-Hydroxymethotrexat], the LC retention time was 4.69 min.
With `COC(=O)COc1ccc(Cl)cc1C` [MCPA-methylester] the LC retention time was 9.85 min.
For `CCOP(=S)(OCC)Oc1ccc2c(C)c(Cl)c(=O)oc2c1` [Coumaphos], the LC retention time was 11.2 min.
Molecule `CCCOC(=O)c1ccc(O)cc1` [Propylparaben] has an LC retention time of 8.36 min.
Molecule `CNC(=N[N+](=O)[O-])NCc1cnc(Cl)s1` [Clothiandin] has an LC retention time of 4.9 min.
`c1ccc(CN(CC2=NCCN2)c2ccccc2)cc1` [Antazoline] showed an LC retention time of 6.41 min.
In the case of `CCCCCCCCOC(=O)c1ccccc1C(=O)OCCCCCCCC` [Phthalate-Di-n-octyl], the LC retention time is reported as 15.3 min.
With `CCOC(=O)Nc1ccc(NCc2ccc(F)cc2)nc1N` [Flupirtine] the LC retention time was 7.09 min.
`CNCCC(Oc1ccccc1C)c1ccccc1` (stereo not given) [Atomoxetine] gave an LC retention time of 7.63 min.
Molecule `CCOC(=O)C(CCc1ccccc1)NC(C)C(=O)N1CC2(CC1C(=O)O)SCCS2` (stereo not given) [Spirapril] has an LC retention time of 8.23 min.
With `COc1cc(CCNCc2ccccc2OC)c(OC)cc1I` [25I-NBoMe] the LC retention time was 8.03 min.
In the case of `O=C1CN=C(c2ccccn2)c2cc(Br)ccc2N1` [Bromazepam], the LC retention time is reported as 7.28 min.
In the case of `COP(=O)(OC)OC(Br)C(Cl)(Cl)Br` (stereo not given) [Naled], the LC retention time is reported as 8.55 min.
For `C[N+]1(C)C2CC(OC(=O)C(CO)c3ccccc3)CC1C1OC12` (stereo not given) [Scopolamine-Methyl], the LC retention time was 3.88 min.
Work on `Cc1ccc(C(=O)c2cn(CCCCCO)c3ccccc23)c2ccccc12` [JWH-122-M-N-5-OH-Pentyl] yielded an LC retention time of 10.6 min.
Molecule `CCC1OC(=O)C(C)C(OC2CC(C)(OC)C(O)C(C)O2)C(C)C(OC2OC(C)CC(N(C)C)C2O)C(C)(O)CC(C)CN(C)C(C)C(O)C1(C)O` (stereo not given) [Azithromycin] has an LC retention time of 5.98 min.
In the case of `O=C(OC1CC2CCC(C1)[N+]21CCCC1)C(O)(c1ccccc1)c1ccccc1` (stereo not given) [Trospium], the LC retention time is reported as 5.72 min.
`Cc1cccc(Nc2ccccc2C(=O)O)c1C` [Mefenamic acid] showed an LC retention time of 11.6 min.
Work on `COc1cc(OC)nc(NC(=O)NS(=O)(=O)c2c(-c3nnn(C)n3)cnn2C)n1` [Azimsulfuron] yielded an LC retention time of 7.62 min.
Molecule `CCC1CCCC(OC2CCC(N(C)C)C(C)O2)C(C)C(=O)C2=CC3C(C=C(C)C4CC(OC5OC(C)C(OC)C(OC)C5OC)CC43)C2CC(=O)O1` (stereo not given) [Spinosad D] has an LC retention time of 11.8 min.
`NCC(O)c1ccccc1` (stereo not given) [Apophedrin  (Phenylethanolamine)] gave an LC retention time of 2.84 min.
Molecule `Cc1ccc(C2(O)CCN(CCCC(=O)c3ccc(F)cc3)CC2)cc1` [Moperone] has an LC retention time of 6.59 min.
`CN(CC(O)CO)C(=O)c1c(I)c(NC(=O)C(CO)CO)c(I)c(C(=O)N(C)CC(O)CO)c1I` (stereo not given) [Iobitridol] showed an LC retention time of 2.74 min.
With `CN1CCN(C(c2ccccc2)c2ccc(Cl)cc2)CC1` (stereo not given) [Chlorcyclizine] the LC retention time was 8.28 min.
